The target in one series is T1, αvβ3 integrin (Homo sapiens, UniProt P05106+P06756).
T1 construct: endogenous in cells; host or cells: M21 human melanoma cells
Briefly: In vitro binding assay: displacement of 125I-echistatin on M21 human melanoma cells. For orientation: Displacement assays read how much labelled ligand stays bound in the presence of the test substance.

Where [1] appears, read: M21 cells, 125I-echistatin, 2 h room temperature, read-out: IC50.

Like-named read-outs stand apart in the source and are kept apart here.

T1 sequence (P06756 31-889 limits assumed): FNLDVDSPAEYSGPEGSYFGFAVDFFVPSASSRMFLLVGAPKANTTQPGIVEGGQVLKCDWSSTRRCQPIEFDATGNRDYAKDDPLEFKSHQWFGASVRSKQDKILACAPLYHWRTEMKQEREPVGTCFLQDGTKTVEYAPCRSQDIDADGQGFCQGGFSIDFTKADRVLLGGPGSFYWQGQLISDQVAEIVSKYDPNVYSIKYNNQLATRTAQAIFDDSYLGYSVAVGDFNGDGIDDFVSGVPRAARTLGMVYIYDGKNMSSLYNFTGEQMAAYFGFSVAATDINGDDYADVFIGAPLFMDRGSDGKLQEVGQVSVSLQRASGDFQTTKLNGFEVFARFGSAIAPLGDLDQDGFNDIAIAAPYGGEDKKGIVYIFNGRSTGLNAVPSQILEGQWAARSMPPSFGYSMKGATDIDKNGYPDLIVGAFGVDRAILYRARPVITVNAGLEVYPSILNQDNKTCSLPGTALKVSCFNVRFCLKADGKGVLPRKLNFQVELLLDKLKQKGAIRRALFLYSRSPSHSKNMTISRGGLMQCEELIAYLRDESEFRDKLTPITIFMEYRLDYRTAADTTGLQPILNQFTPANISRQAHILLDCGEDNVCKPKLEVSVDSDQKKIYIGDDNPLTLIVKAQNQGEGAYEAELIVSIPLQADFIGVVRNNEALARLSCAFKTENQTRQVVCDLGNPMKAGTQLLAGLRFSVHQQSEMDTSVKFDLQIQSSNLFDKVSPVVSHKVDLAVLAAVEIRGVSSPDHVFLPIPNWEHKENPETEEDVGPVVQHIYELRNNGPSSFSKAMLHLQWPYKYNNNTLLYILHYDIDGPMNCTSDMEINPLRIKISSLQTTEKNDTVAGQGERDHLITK
T1 sequence (P06756 891-1048 partner limits assumed): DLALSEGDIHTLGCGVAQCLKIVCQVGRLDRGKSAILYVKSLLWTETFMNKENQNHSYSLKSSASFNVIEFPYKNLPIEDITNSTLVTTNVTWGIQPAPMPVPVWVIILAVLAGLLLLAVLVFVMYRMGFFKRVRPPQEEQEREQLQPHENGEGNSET
T1 sequence (P05106 27-788): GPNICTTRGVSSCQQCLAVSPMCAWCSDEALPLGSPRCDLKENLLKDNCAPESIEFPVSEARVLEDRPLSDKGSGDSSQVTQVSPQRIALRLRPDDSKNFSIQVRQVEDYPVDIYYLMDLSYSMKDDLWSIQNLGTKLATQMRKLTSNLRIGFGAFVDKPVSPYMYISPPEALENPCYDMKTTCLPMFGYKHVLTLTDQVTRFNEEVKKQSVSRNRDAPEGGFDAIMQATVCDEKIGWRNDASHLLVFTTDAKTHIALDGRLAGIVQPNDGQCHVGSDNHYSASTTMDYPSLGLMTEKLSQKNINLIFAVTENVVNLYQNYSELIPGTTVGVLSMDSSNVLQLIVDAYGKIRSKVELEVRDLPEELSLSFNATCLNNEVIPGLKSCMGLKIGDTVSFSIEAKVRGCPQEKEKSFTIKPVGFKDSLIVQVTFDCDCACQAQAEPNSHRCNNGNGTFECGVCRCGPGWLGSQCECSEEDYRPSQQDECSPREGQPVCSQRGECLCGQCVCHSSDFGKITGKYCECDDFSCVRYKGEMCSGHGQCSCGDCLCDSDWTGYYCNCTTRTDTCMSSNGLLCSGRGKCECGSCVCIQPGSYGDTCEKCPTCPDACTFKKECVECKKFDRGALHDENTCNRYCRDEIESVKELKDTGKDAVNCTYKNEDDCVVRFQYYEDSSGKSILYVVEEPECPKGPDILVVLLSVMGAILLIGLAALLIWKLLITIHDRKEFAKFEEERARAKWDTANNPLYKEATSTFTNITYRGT

As to 19F-galacto-RGD [reference compound], the concentration for half-maximal inhibition (IC50) (in general, the concentration at which inhibition is half-maximal) on αvβ3 integrin (setting [1]) worked out at 319 nM. For the same molecule, the “log IC50” value on αvβ3 integrin (logarithmic IC50 with logarithmic error, M21 cells, 125I-echistatin, 2 h room temperature) was −6.45 ± 0.157.

Take `N=C(N)NCCC[C@@H]1NC(=O)[C@H](CCCCNC(=O)CCOCCOCCOCCOCCNC(=O)CCP(=O)(O)CN2CCN(CP(=O)(O)CCC(=O)NCCOCCOCCOCCOCCC(=O)NCCCC[C@@H]3NC(=O)[C@@H](Cc4ccccc4)NC(=O)[C@H](CC(=O)O)NC(=O)CNC(=O)[C@H](CCCNC(=N)N)NC3=O)CCN(CP(=O)(O)CCC(=O)NCCOCCOCCOCCOCCC(=O)NCCCC[C@@H]3NC(=O)[C@@H](Cc4ccccc4)NC(=O)[C@H](CC(=O)O)NC(=O)CNC(=O)[C@H](CCCNC(=N)N)NC3=O)CC2)NC(=O)[C@@H](Cc2ccccc2)NC(=O)[C@H](CC(=O)O)NC(=O)CNC1=O` (single isomer, unassigned) [Ga-R3PEG4P9]: the logP (as a rule, a log measure of how a compound divides between an organic and an aqueous phase) is -3.9 ± 0.1.

Consider `N=C(N)NCCC[C@@H]1NC(=O)[C@H](CCCCNC(=O)CCP(=O)(O)CN2CCN(CP(=O)(O)CCC(=O)O)CCN(CP(=O)(O)CCC(=O)O)CC2)NC(=O)[C@@H](Cc2ccccc2)NC(=O)[C@H](CC(=O)O)NC(=O)CNC1=O` [Compound R1P9], for which the half-inhibitory concentration (IC50) on αvβ3 integrin (IC50 (nM)) was 2890 nM; at αvβ3 integrin (log IC50) it was 2950 nM.

The molecule `N=C(N)NCCC[C@@H]1NC(=O)[C@H](CCCCNC(=O)CCP(=O)(O)CN2CCN(CP(=O)(O)CCC(=O)O)CCN(CP(=O)(O)CCC(=O)NCCCC[C@@H]3NC(=O)[C@@H](Cc4ccccc4)NC(=O)[C@H](CC(=O)O)NC(=O)CNC(=O)[C@H](CCCNC(=N)N)NC3=O)CC2)NC(=O)[C@@H](Cc2ccccc2)NC(=O)[C@H](CC(=O)O)NC(=O)CNC1=O` [Compound R2P9] yielded a 50% inhibitory concentration (IC50) on αvβ3 integrin (IC50 (nM)) of 370 nM.

As for `CCN=c1cc2oc3cc(NCC)c(C)cc3c(-c3ccccc3C(=O)NCCCCCCNC(=O)CCP(=O)(O)CN3CCN(CP(=O)(O)CCC(=O)NCCCCC4NC(=O)[C@@H](Cc5ccccc5)NC(=O)[C@H](CC(=O)O)NC(=O)CNC(=O)[C@H](CCCNC(=N)N)NC4=O)CCN(CP(=O)(O)CCC(=O)NCCCC[C@@H]4NC(=O)[C@@H](Cc5ccccc5)NC(=O)[C@H](CC(=O)O)NC(=O)CNC(=O)[C@H](CCCNC(=N)N)NC4=O)CC3)c-2cc1C` (some centres unmarked) [Compound R2RhoP9], on αvβ3 integrin (IC50 (nM)), the half-maximal inhibitory concentration (IC50) stood at 92 nM.

`N=C(N)NCCC[C@@H]1NC(=O)[C@H](CCCCNC(=O)CC[C@H](NC(=O)CCP(=O)(O)CN2CCN(CP(=O)(O)CCC(=O)N[C@@H](CCC(=O)NCCCC[C@@H]3NC(=O)[C@@H](Cc4ccccc4)NC(=O)[C@H](CC(=O)O)NC(=O)CNC(=O)[C@H](CCCNC(=N)N)NC3=O)C(=O)O)CCN(CP(=O)(O)CCC(=O)N[C@@H](CCC(=O)NCCCC[C@@H]3NC(=O)[C@@H](Cc4ccccc4)NC(=O)[C@H](CC(=O)O)NC(=O)CNC(=O)[C@H](CCCNC(=N)N)NC3=O)C(=O)O)CC2)C(=O)O)NC(=O)[C@@H](Cc2ccccc2)NC(=O)[C@H](CC(=O)O)NC(=O)CNC1=O` [Compound R3GlutP9] displayed a half-inhibitory concentration (IC50) at αvβ3 integrin (IC50 (nM)) of 125 nM.

In turn, `N=C(N)NCCC[C@@H]1NC(=O)[C@H](CCCCNC(=O)CCCCCNC(=O)CC[PH](=O)CN2CCN(CP(=O)(O)CCC(=O)NCCCCCC(=O)NCCCC[C@@H]3NC(=O)[C@H](Cc4ccccc4)NC(=O)[C@H](CC(=O)O)NC(=O)CNC(=O)[C@H](CCCNC(=N)N)NC3=O)CCN(CP(=O)(O)CCC(=O)NCCCCCC(=O)NCCCC[C@@H]3NC(=O)[C@H](Cc4ccccc4)NC(=O)[C@H](CC(=O)O)NC(=O)CNC(=O)[C@H](CCCNC(=N)N)NC3=O)CC2)NC(=O)[C@H](Cc2ccccc2)NC(=O)[C@H](CC(=O)O)NC(=O)CNC1=O` (some centres unmarked) [Compound R3HexP9] came in with an IC50 at αvβ3 integrin (IC50 (nM)) of 85 nM.

For `N=C(N)NCCC[C@@H]1NC(=O)[C@H](CCCCNC(=O)CCOCCOCCOCCOCCOCCOCCOCCOCCNC(=O)CCP(=O)(O)CN2CCN(CP(=O)(O)CCC(=O)NCCOCCOCCOCCOCCOCCOCCOCCOCCC(=O)NCCCC[C@@H]3NC(=O)[C@@H](Cc4ccccc4)NC(=O)[C@H](CC(=O)O)NC(=O)CNC(=O)[C@H](CCCNC(=N)N)NC3=O)CCN(CP(=O)(O)CCC(=O)NCCOCCOCCOCCOCCOCCOCCOCCOCCC(=O)NCCCC[C@@H]3NC(=O)[C@@H](Cc4ccccc4)NC(=O)[C@H](CC(=O)O)NC(=O)CNC(=O)[C@H](CCCNC(=N)N)NC3=O)CC2)NC(=O)[C@@H](Cc2ccccc2)NC(=O)[C@H](CC(=O)O)NC(=O)CNC1=O` [Compound R3PEG8P9], the IC50 on αvβ3 integrin (setting [1]) amounted to 50 nM.

For `N=C(N)NCCC[C@@H]1NC(=O)[C@H](CCCCNC(=O)CCP(=O)(O)CN2CCN(CP(=O)(O)CCC(=O)O)CCN(CP(=O)(O)CCC(=O)O)CC2)NC(=O)[C@@H](Cc2ccccc2)NC(=O)[C@H](CC(=O)O)NC(=O)CNC1=O` [Ga-R1P9], the logP is -3.91 ± 0.11.

Turning to `N=C(N)NCCC[C@@H]1NC(=O)[C@H](CCCCNC(=O)CCP(=O)(O)CN2CCN(CP(=O)(O)CCC(=O)O)CCN(CP(=O)(O)CCC(=O)NCCCC[C@@H]3NC(=O)[C@@H](Cc4ccccc4)NC(=O)[C@H](CC(=O)O)NC(=O)CNC(=O)[C@H](CCCNC(=N)N)NC3=O)CC2)NC(=O)[C@@H](Cc2ccccc2)NC(=O)[C@H](CC(=O)O)NC(=O)CNC1=O` [Ga-R2P9], the logP was -4.12 ± 0.06.

Molecule `CCN=c1cc2oc3cc(NCC)c(C)cc3c(-c3ccccc3C(=O)NCCCCCCNC(=O)CCP(=O)(O)CN3CCN(CP(=O)(O)CCC(=O)NCCCC[C@@H]4NC(=O)[C@@H](Cc5ccccc5)NC(=O)[C@H](CC(=O)O)NC(=O)CNC(=O)[C@H](CCCNC(=N)N)NC4=O)CCN(CP(=O)(O)CCC(=O)NCCCC[C@@H]4NC(=O)[C@@H](Cc5ccccc5)NC(=O)[C@H](CC(=O)O)NC(=O)CNC(=O)[C@H](CCCNC(=N)N)NC4=O)CC3)c-2cc1C` [Ga-R2RhoP9] registered a logP of -1.27 ± 0.04.

Molecule `N=C(N)NCCC[C@@H]1NC(=O)[C@H](CCCCNC(=O)CC[C@H](NC(=O)CCP(=O)(O)CN2CCN(CP(=O)(O)CCC(=O)N[C@@H](CCC(=O)NCCCC[C@@H]3NC(=O)[C@@H](Cc4ccccc4)NC(=O)[C@H](CC(=O)O)NC(=O)CNC(=O)[C@H](CCCNC(=N)N)NC3=O)C(=O)O)CCN(CP(=O)(O)CCC(=O)N[C@@H](CCC(=O)NCCCC[C@@H]3NC(=O)[C@@H](Cc4ccccc4)NC(=O)[C@H](CC(=O)O)NC(=O)CNC(=O)[C@H](CCCNC(=N)N)NC3=O)C(=O)O)CC2)C(=O)O)NC(=O)[C@@H](Cc2ccccc2)NC(=O)[C@H](CC(=O)O)NC(=O)CNC1=O` [Ga-R3GlutP9] returned a logP of -4.03 ± 0.12.

`N=C(N)NCCC[C@@H]1NC(=O)[C@H](CCCCNC(=O)CCCCCNC(=O)CCP(=O)(O)CN2CCN(CP(=O)(O)CCC(=O)NCCCCCC(=O)NCCCC[C@@H]3NC(=O)[C@@H](Cc4ccccc4)NC(=O)[C@H](CC(=O)O)NC(=O)CNC(=O)[C@H](CCCNC(=N)N)NC3=O)CCN(CP(=O)(O)CCC(=O)NCCCCCC(=O)NCCCC[C@@H]3NC(=O)[C@@H](Cc4ccccc4)NC(=O)[C@H](CC(=O)O)NC(=O)CNC(=O)[C@H](CCCNC(=N)N)NC3=O)CC2)NC(=O)[C@@H](Cc2ccccc2)NC(=O)[C@H](CC(=O)O)NC(=O)CNC1=O` [Ga-R3HexP9] yielded a logP of -3.99 ± 0.13.

Consider Echistatin [reference compound], for which the “log IC50” value at αvβ3 integrin is reported as −9.01 ± 0.033. The IC50 on αvβ3 integrin (read-out: IC50) was 0.98 nM.

Values taken from US9260483B2, “Triazacyclononane-based phosphinate ligand and its use for molecular imaging” (TECHNISCHE UNIVERSITÄT MÜNCHEN, priority 2011, dated 2016).
